This note sets out measurements from US8575352B2, “Benzyl sulfonamide derivatives useful as MOGAT-2 inhibitors” (Eli Lilly and Company, priority 2012, dated 2013).

Broadly, the IC50 is the concentration that gives 50% inhibition.

Test [1] relates to plasma triglyceride (TAG) secretion from the intestine. Briefly: Dog Oil Bolus Model (plasma triglyceride after olive oil bolus). The class given is in vivo, dog (male beagles). As to conditions: olive oil bolus 5 ml/kg; for reduction of 18:1 TAG (plasma TAG 18:1 18:1 18:1 net AUC): 18:1 TAG by LC/MS/MS. The source says: Inhibiting MOGAT-2 found in the small intestine may be useful for treating hypertriglyceridemia caused by excessive fat intake Inhibition of MOGAT-2 disrupts resynthesis of triglycerides, which reduces secretion of triglycerides from the intestine. Therefore, MOGAT-2 inhibition interferes with a specific process that leads to eventual secretion of triglycerides into the intestine for eventual circulation through the body. To assess the ability of one or more of the exemplified compounds to inhibit MOGAT-2 induced TAG secretion into the intestine as measured in the blood system, the following protocol can be followed.
Twenty one male beagles (n=7 per treatment group) are enrolled for each study, each dog selected to have a body weight between 9-13 kg. House the dogs in cages with a standard light cycle (12 hours light and 12 hours dark); at room temperature: 72±8° F.; and at 30%-70% relative humidity. Fast the dogs for 16 hours prior to the start of the study, then dose the fasted dogs with vehicle (1% HEC, 0.25%, Tween 80, Antifoam) or one of the test compounds in that vehicle. Bleed the dogs one hour after dosing, (0.5 ml from the jugular vein) for a time 0 sample. Dose the dogs with olive oil (Sigma Catalog#: O-1514, 5 ml/kg) immediately after collection of the time 0 sample. Collect samples into an EDTA tube on ice at 1.5, 2, 3, 5, 7, and 9 hrs post compound/vehicle dosing. Centrifuge the samples at […] for 15 min and analyze (Roche Cat no. 1877771) for plasma total triglyceride using a Roche Hitachi 917. For plasma TAG 18.1—18.1—18.1 measurement, extract the samples and perform LC/MS/MS analysis similarly to that described above in MOGAT-2 Cell Assay using 10 μL of plasma/.
The analyte is the [M+NH4]+ ion of TAG 18:1 18:1 18:1, which has a mass of 902.8 m/z; the internal standard is D5 TAG 16:0 16:0 16:0, which has a mass of 829.8 m/z. Report the ratio of the 603.5 m/z daughter ion of 902.8 m/z (TAG 18:1 18:1 18:1) and the 556.5 m/z daughter ion of 829.8 m/z (D5 TAG 16:0 16:0 16:0 internal standard) changes in TAG 18:1 18:1 18:1 relative amount. Calculate the net plasma TAG AUC from total TAG AUC minus baseline TAG AUC using Graphpad Prism4: (Net AUCTAG=AUCTAG post oil bolus−AUCTAG at 0 hour). The percent inhibition of plasma triglyceride is calculated as follows: the (oil bolus group mean of net TAG AUC−oil bolus group mean of net TAG AUC with compound treatment/oil bolus group mean of net TAG AUC)*100. The final statistic analysis uses Dunnett's method of One way Anova for comparison with the control. All Net TAG AUC values are transformed to ranked averaged AUC for comparison to limit the variability within the studies.

Test [2] concerns the target T1, human MOGAT-2 (Homo sapiens, UniProt Q3SYC2). Briefly: Inhibitory Activity in MOGAT-2 Cell Assay (Caco-2 cells stably transfected with human MOGAT-2, HDG substrate, LC-MS). The class given is cell-based. Details: expressed in transfected cells. As to conditions: Caco-2 cells expressing human MOGAT-2, HDG/DOPC, 4 hours; read-out: IC50 nM (Std Dev., n*). As to the method:
The inhibitory activity of compounds against human MOGAT-2 in a cell environment is evaluated in this assay. Caco-2 is a human colon carcinoma cell line and is often used as a model for intestinal epithelial cells. […] A MAG analogue, 2-O-Hexadecylglycerol (HDG), is utilized to detect cellular MOGAT-2 activity, because HDG is not hydrolyzed and the resulting product is readily monitored by mass spectrometry. The substrate is delivered to cells using as a mixture with DOPC in the form of sonicated vesicles.
Seed the Caco2 cells onto 100 mm dishes to be 80% confluent after 24 hours in complete media (3/1 DMEM: F12+10% FBS+20 mM HEPES+gentamicin). Transfect the cells with hMOGAT-2 plasmid (MOGAT-2-pcDNA3.1-Hygro) using Lipofectamine 2000 (Invitrogen). After a 6 hour exposure to the transfection mixture, wash the cells three times in PBS and then add media. Incubate the cells for an additional 18 hours incubation, trypsinize the cells and serially dilute them into 100 mm dishes. Add complete media+400 μg/ml hygromycin and incubate until clones appear. Isolate and transfer the clones into 24 well dishes and grow to confluency. Prepare the RNAs from these clones using a Qiagen RNAeasy kit. Perform Taqman analysis using an ABI inventoried assay (HS00228262) on a 7900 Sequence Detection System (ABI). Analyze the lysates from these clones by Western blot analysis using a goat polyclonal antibody (Santa Cruz, SC-32392 to confirm human MOGAT-2 expression of a 38 kD protein corresponding to MOGAT-2.
Mix 2-O-hexadecylglycerol (“HDG”, Biosynth Chemistry & Biology, #H-1806, 562.7 μl of 20 mg/ml) and DOPC (14.3 ml of 20 mg/ml) in chloroform in a glass tube; dry first under N2 gas; and then under reduced pressure for additional 30 minutes. Add 20 ml of buffer (150 mM Tris-Cl pH 7.4, 250 mM sucrose, 1 mM EDTA) to the dried HDG/DOPC mixture while sonicating until the solution becomes clear. Plate the Caco2 cells into a poly-D-lysine coated 96-well plate (the “Cell Plate”) at 37° C., 5% CO2 overnight. Remove the growth media and pretreat the cells with the test compound in DMEMF12 (3:1) media (GIBCO 93-0152DK) containing 2% BSA (Sigma) for 30 minutes. Treat the cells with one test compound in 2% BSA DMEMF12 (3:1) media containing 40 μM of oleic acid and 800 μM of 8.9:91.9 (molar ratio) HDG/DOPC for 4 hours. Trypsinize the cells with 50 μl of trypsin solution and add 50 μl of PBS. Immediately freeze the cells on dry ice and store at −20° C. for LC-MS analysis. Extract the cells with chloroform/methanol as follows: transfer the cells to a 2 ml plate; wash the cell plate with 200 μL methanol and then transfer the methanol wash to the 2 ml plate; wash the cell plate again with 200 μL PBS and transfer the PBS wash to the 2 ml plate. Add chloroform (400 μL) with internal standard (19.52 ng/mL) DAG (15:0, 15:0 (Sigma)), D5-TAG (39.03 ng/mL) CDN (16, 16, 16) to the 2 mL Plate. Turn the sealed 2 mL Plate up and down (10×), then vortex and spin. Remove 400 μL of the lower layer from the 2 mL plate and add to the wells of another plate the “Final Plate”. Add CHCl3:MeOH (400 μL 2:1) to the 2 mL Plate. Again turn the sealed 2 mL Plate up and down (10×), vortex and spin. Remove 220 μL of the lower layer from the 2 mL Plate and add to the Final Plate. Dry the Final Plate and reconstitute with […] of IPA. Seal the Final Plate and shake for 5 min. […]

Test [3] has as its target T1, human MOGAT-2. Briefly: MOGAT-2 Inhibitory Assay (in vitro, SF9 cell lysate, 14C-oleoyl-CoA, Microscint extraction). Format: biochemical. Details: made in house; host or cells: insect SF9 cells (crude lysate supernatant). Particulars: SF9 cell extract expressing human MOGAT-2, 90 min, room temperature. On the procedure: The in vitro inhibitory activity of compounds against human MOGAT-2 is evaluated in this assay. MOGAT-2 transfers an oleoyl group to monooleoyl-glycerol (“MAG”) from oleoyl-CoA to form dioleoyl-glycerol (“DAG”) in the intestinal triglyceride resynthesis pathway. The assay takes advantage of Microscint Extraction, which extracts hydrophobic molecules selectively over hydrophilic ones to separate the ^14C-oleoyl-CoA from ^14C-DAG.
Genetically engineered insect SF9 cells express human MOGAT-2. Prepare the cell lysate in 20 mM of NaCl with protease inhibitor (Roche Cat #11873580001). Homogenize the SF9 cells expressing human MOGAT-2 at 15,000 rpm for 20×2 seconds (PT-3100 Polytrone). Centrifuge the homogenate at 1000 g for 10 minutes at 4° C. Collect the supernatant into a separate tube for protein quantification and activity testing. Purify the glycerol monooleate substrate (Spectrum Chemical, CAS#25496-72-4) chromatographically. Prepare the monoacylglyerol (MAG) substrate in phospholipid vescicles (dioleoyl phosphatidylcholine “DOPC”). Prepare the MAG/DOPC vesicles at 20 mM concentration of total lipids (MAG and DOPC). Prepare different molar ratios of MAG to total lipids for either compound screening (8.9%) or compound kinetic studies (2.6-40%). Mix the appropriate amount of purified MAG and DOPC (Avanti Polar Lipids #850375C) in chloroform in a glass tube. […]

Structures can show the parent of a compound that is named as a salt.

T1 sequence (Q3SYC2 whole entry): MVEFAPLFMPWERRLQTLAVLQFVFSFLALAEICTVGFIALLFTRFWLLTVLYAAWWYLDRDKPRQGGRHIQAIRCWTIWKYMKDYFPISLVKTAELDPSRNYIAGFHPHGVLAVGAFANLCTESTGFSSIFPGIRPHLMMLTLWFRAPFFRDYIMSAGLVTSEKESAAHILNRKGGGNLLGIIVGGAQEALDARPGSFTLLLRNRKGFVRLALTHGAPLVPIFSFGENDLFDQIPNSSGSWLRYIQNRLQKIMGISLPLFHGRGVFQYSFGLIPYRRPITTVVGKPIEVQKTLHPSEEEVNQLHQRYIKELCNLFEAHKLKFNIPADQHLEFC

Take `COC[C@H](CNCc1ccc([C@H](NS(C)(=O)=O)C(F)(F)F)cc1)Oc1ccc(F)cn1.Cl` [Example 1, N-[(1S)-2,2,2-Trifluoro-1-{4-[({(2S)-2-[(5-fluoropyridin-2-yl)oxy]-3-methoxypropyl}amino)methyl]phenyl}ethyl]methanesulfonamide hydrochloride]: the “reduction of 18:1 TAG (plasma TAG 18:1 18:1 18:1 net AUC)” value in test [1] (30 mg/kg) is 64%; in test [1] (60 mg/kg), 76%. For the same molecule, the “reduction of TAG secretion (percent inhibition of plasma total triglyceride net AUC)” value in test [1] (30 mg/kg, total TAG) is 61%. In addition, the “reduction of TAG secretion/absorption (percent inhibition of plasma total triglyceride net AUC)” value in test [1] (60 mg/kg, total TAG) worked out at 77%. Also, the IC50 on human MOGAT-2 [2] turned out to be 30.6 nM; at human MOGAT-2 [3], 2 nM.

Regarding `C[C@H](CNCc1ccc([C@H](NS(C)(=O)=O)C(F)(F)F)cc1)Oc1ccccn1` [Example 3, N-{(1S)-2,2,2-Trifluoro-1-[4-({[(2R)-2-(pyridin-2-yloxy)propyl]amino}-methyl)phenyl]ethyl}-methanesulfonamide hydrochloride], the IC50 on human MOGAT-2 [2] stood at 14.4 nM.

On to `COC[C@H](CNCc1ccc([C@H](NS(C)(=O)=O)C(F)(F)F)cc1)Oc1ccccn1` [Example 5, N-{(1S)-2,2,2-Trifluoro-1-[4-({[(2S)-3-methoxy-2-(pyridin-2-yloxy)propyl]amino}-methyl)phenyl]ethyl}-methanesulfonamide hydrochloride (1:1)], for which the IC50 at human MOGAT-2 [2] is 44.6 nM.

For the molecule `CS(=O)(=O)N[C@@H](c1ccc(CNCCOc2ccc(F)cn2)cc1)C(F)(F)F` [Example 17, N-[(1S)-2,2,2-Trifluoro-1-{4-[({2-[(5-fluoropyridin-2-yl)oxy]ethyl}amino)-methyl]phenyl}ethyl]-methanesulfonamide hydrochloride], the IC50 on human MOGAT-2 [2] stood at 45.5 nM.

Regarding `C[C@H](CNCc1ccc([C@H](NS(C)(=O)=O)C(F)(F)F)cc1)Oc1ccc(F)cn1.Cl` [Example 36, N-[(1S)-2,2,2-Trifluoro-1-{4-[({(2r)-2-[(5-fluoropyridin-2-yl)oxy]propyl}amino)methyl]phenyl}ethyl]-methanesulfonamide hydrochloride], the “reduction of 18:1 TAG (plasma TAG 18:1 18:1 18:1 net AUC)” value in test [1] (60 mg/kg) turned out to be 43%. Besides, in test [1] (60 mg/kg, total TAG), the “reduction of TAG secretion/absorption (percent inhibition of plasma total triglyceride net AUC)” value was determined as 38%. For the same molecule, the IC50 at human MOGAT-2 [2] was found to be 36.1 nM.
